Publication PMC10132538, “Regulation of the two-pore domain potassium channel, THIK-1 and THIK-2, by G protein coupled receptors” (PLOS ONE, 2023)
One block for each compound: values may come before it.

Columns and labels:
[1] = test system: endogenously expressed channels in HEK293T cells; test: Effect of receptor stimulation on the endogenous current in HEK293T cells without THIK-1; assay type: cell-based
Excerpt: The amplitude of the current increase at the 15th trace (ΔI15th) after the application of GABA or oxo-M were normalized to that at the 5th traces (ΔI5th) with or without additional activation of A2aR (ΔI15th/ΔI5th).
The current density at 0 mV (I0) in HEK293T cell transfected with indicated receptors and the effects of the receptor stimulation are shown as Mean and S.D.

mGlu2 = target: T1, mGlu2 (Rattus norvegicus, UniProt P31421); test: mGlu2-induced increase of THIK-1 channel current, whole cell patch clamp in HEK293T cells; assay type: cell-based; details: concentration response of THIK-1 current increase
T1 construct: expressed in transfected cells; host or cells: HEK293T
Excerpt: (§1) Coding region of mGu2 (M1-P840) was amplified by conventional PCR with designed primers and the resulting product was subcloned into pEYFP-N1 vector at the BglII and EcoRI sites. The cDNAs for mouse THIK-2 channel and dimeric THIK channels were subcloned into pcDNA3.1(-) vector. To increase the surface membrane expression of the THIK-2 channel, 29 residues (Ser2-Ser30) were removed (ΔN-THIK-2). […] Ci-VSP-IRES-GFP vector was kindly gifted by Dr. Y. Okamura (Osaka University, Osaka, Japan). HEK293T cells or CHO-K1 cells were seeded on glasses and transfected with the plasmid DNAs for THIK channels, receptors and a transfection marker of yellow fluorescent protein (YFP). Electrophysiological experiments were performed 24–72 h after the transfection. […] Pertussis toxin (PTX) was purchased from Wako (Osaka, Japan). […] All reagents were dissolved at high concentration and stored at -20 °C as the stock solutions. The stock reagent solution was diluted at concentrations for the electrophysiological experiments. […]
(§2) The amplitude of the THIK-1 channel current at 0 mV was measured from every trace induced by the ramp pulse protocol to minimize the fraction of non-selective cationic leak current. […] The effects of GPCRs on the THIK-1 channel were evaluated as the ratio of the current amplitude after the agonist application to I0 (Iagonist/I0). […]

[2] = target: T2, mGlu2-YFP / ΔN-THIK-2 channel (Rattus norvegicus, UniProt P31421); test: mGlu2-YFP-induced increase of ΔN-THIK-2 channel current in CHO-K1 cells; assay type: cell-based, mouse; details: PTX treated cells, glutamate 200 μM
T2 construct: Coding region of mGu2 (M1-P840) was amplified by conventional PCR; expressed in transfected cells; host or cells: CHO-K1
Excerpt: as §1, with “experiments. PTX was solved in the culture medium (final concentration, 300 ng/mL) and cells were incubated in it for more than 16 h. U73122 or U73343 (final concentration, 2 μM each) was dissolved in Hanks’ Balanced Salt Solution (HBSS, Invitrogen, Carlsbad, CA, USA) supplemented with 1 mM Ca^2+ and 0.3 mM Mg^2+.” for “experiments.”

GABABR = target: T3, GABABR (Homo sapiens, UniProt Q9UBS5); test: GABABR-induced increase of THIK-1 channel current, whole cell patch clamp in HEK293T cells; assay type: cell-based; details: PTX 300 ng/mL, more than 16 h
T3 construct: expressed in transfected cells; host or cells: HEK293T
Excerpt: as §1, §2

THIK-1 channel [3] = test: Basal current (I0) density of THIK-1 channel at 0 mV in HEK293T cells; assay type: cell-based; details: 0 mV, before agonist
Excerpt: Coding region of mGu2 (M1-P840) was amplified by conventional PCR with designed primers and the resulting product was subcloned into pEYFP-N1 vector at the BglII and EcoRI sites. The cDNAs for mouse THIK-2 channel and dimeric THIK channels were subcloned into pcDNA3.1(-) vector. To increase the surface membrane expression of the THIK-2 channel, 29 residues (Ser2-Ser30) were removed (ΔN-THIK-2). […] Ci-VSP-IRES-GFP vector was kindly gifted by Dr. Y. Okamura (Osaka University, Osaka, Japan). HEK293T cells or CHO-K1 cells were seeded on glasses and transfected with the plasmid DNAs for THIK channels, receptors and a transfection marker of yellow fluorescent protein (YFP). Electrophysiological experiments were performed 24–72 h after the transfection. […] Pertussis toxin (PTX) was purchased from Wako (Osaka, Japan). […] All reagents were dissolved at high concentration and stored at -20 °C as the stock solutions. The stock reagent solution was diluted at concentrations for the electrophysiological experiments. PTX was solved in the culture medium (final concentration, 300 ng/mL) and cells were incubated in it for more than 16 h. U73122 or U73343 (final concentration, 2 μM each) was dissolved in Hanks’ Balanced Salt Solution (HBSS, Invitrogen, Carlsbad, CA, USA) supplemented with 1 mM Ca^2+ and 0.3 mM Mg^2+. Cells were incubated in HBSS with U73122 or U73343 for 10 min at room temperature before the whole cell current recording.
Composition of bath solution was (in mM) 140 NaCl, 4 KCl, 1 CaCl2, 0.3 MgCl2, 10 HEPES (pH 7.4 adjusted with NaOH). The pipette solution for whole cell patch clamp experiments contained (mM) 130 KCl, 5 Na2-ATP, 3 EGTA, 0.1 CaCl2, 10 HEPES, 4 MgCl2, (pH 7.3 adjusted with KOH). GTP (0.3 mM) was supplemented in the pipette solution. Once the whole cell configuration was established, the cell was held at -80mV and ramp pulses (-120mV to +40mV for 0.4 sec) were applied every 5 sec. Various concentrations of the agonists were applied using a fast perfusion system (VC77SP, Warner Instruments, Hamden, CT, USA). The PKC inhibitor chelerythrine was included in the pipette solution.
The amplitude of the THIK-1 channel current at 0 mV was measured from every trace induced by the ramp pulse protocol to minimize the fraction of non-selective cationic leak current. The current amplitude before the agonist application was set as the basal current amplitude (I0). The effects of GPCRs on the THIK-1 channel were evaluated as the ratio of the current amplitude after the agonist application to I0 (Iagonist/I0). The EC50 values were estimated by fitting the concentration response curve to a Hill equation (Origin2016; OriginLab, Northampton, MA, USA). […] The effects of A2aR on the Gi/o-R-induced current increase of the THIK-1 channel was estimated as follows. […] All data are shown as means and S.D. The statistical significance between two or more than two groups was estimated by unpaired Student’s t-test or by a one-way analysis of variance (ANOVA) followed by Tukey’s test, respectively. […] Values of p≤ 0.05 were considered as statistically significant (***:p≤0.001, **:0.001<p≤0.01, *:0.01<p≤0.05, n.s.:p>0.05).

THIK-1 channel [4] = target: T4, THIK-1 channel (Mus musculus, UniProt Q8R1P5); test: Effect of DAG analogue on THIK-1 channel current (I10th/I0); assay type: cell-based; details: 50 sec after application
T4 construct: expressed in transfected cells; host or cells: HEK293T
T4 sequence (Q8R1P5 1-405): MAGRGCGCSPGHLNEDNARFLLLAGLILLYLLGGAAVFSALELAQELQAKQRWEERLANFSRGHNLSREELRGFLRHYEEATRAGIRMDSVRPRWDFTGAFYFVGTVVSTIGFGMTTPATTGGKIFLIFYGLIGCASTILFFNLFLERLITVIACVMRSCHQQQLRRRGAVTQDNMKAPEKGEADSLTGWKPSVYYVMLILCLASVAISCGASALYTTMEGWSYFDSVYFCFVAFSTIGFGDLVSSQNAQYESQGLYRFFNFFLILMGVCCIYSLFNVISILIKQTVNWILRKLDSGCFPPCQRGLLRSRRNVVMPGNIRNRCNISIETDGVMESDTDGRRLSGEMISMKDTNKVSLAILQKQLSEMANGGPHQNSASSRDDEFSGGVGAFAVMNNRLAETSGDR
Excerpt: (§3) Pertussis toxin (PTX) was purchased from Wako (Osaka, Japan).
Fig 5 Effects of OAG on THIK-1 channel current. (A) Current and membrane potential relationships before and after application of OAG. Ramp pulses were applied ever 5 sec before and after application of OAG. The current and membrane potential relationships before (black) and 50 sec after application of the indicated concentration of OAG (red) are shown. (B) Effects of OAG on THIK-1 channel. Circles indicate the ratio of the current amplitudes after application of OAG or DMSO to the amplitudes before application of them (I10th/I0). Mean and S.D. are shown as bars (n = 8–12). n.s.: p> 0.05.

ΔN-THIK-2 channel = target: T5, ΔN-THIK-2 channel (Mus musculus, UniProt F6UVE5); test: Effect of DAG analogue on ΔN-THIK-2 channel current (I10th/I0) in CHO-K1 cells; assay type: cell-based; details: 10 and 30 μM
T5 construct: expressed in transfected cells; host or cells: CHO-K1
T5 sequence (F6UVE5 with tags, fused parts or gaps): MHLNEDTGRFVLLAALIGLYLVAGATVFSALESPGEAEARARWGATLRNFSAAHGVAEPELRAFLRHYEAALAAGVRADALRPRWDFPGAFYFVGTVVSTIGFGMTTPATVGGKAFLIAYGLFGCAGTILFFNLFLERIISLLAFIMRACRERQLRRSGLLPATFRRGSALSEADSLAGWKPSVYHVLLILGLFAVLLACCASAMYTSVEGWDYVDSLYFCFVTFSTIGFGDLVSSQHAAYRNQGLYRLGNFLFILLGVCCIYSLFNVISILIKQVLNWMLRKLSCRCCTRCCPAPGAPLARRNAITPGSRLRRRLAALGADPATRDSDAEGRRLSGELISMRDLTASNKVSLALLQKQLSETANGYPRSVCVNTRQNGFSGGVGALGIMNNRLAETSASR
Excerpt: as §3
Fig 7 Effect of C-Ala mutation or OAG on ΔN-THIK-2 channel. (A) Current-voltage relationships before and after stimulation of mGlu2. […]. (B) Effects of the mGlu2 activation on the ΔN-THIK-2 and C-Ala mutants. […]. Mean and S.D. are shown as bars (n = 11–12). (C) Current-voltage relationships before and after application of OAG. The current-voltage relationships before and 50 sec after application of OAG are shown (black and red lines, respectively). The tested concentration of OAG was 10 μM (left) and 30 μM (right). (D) Effects of OAG on the ΔN-THIK-2 channel. The ratio (I10th/I0) are not different between OAG applied group (filled circles) and vehicle applied group (open circles). Mean and S.D. are shown as bars (n = 7–11). **: 0.001<p≤ 0.01, n.s.: p> 0.05.

T3 sequence (Q9UBS5 15-961 limits assumed): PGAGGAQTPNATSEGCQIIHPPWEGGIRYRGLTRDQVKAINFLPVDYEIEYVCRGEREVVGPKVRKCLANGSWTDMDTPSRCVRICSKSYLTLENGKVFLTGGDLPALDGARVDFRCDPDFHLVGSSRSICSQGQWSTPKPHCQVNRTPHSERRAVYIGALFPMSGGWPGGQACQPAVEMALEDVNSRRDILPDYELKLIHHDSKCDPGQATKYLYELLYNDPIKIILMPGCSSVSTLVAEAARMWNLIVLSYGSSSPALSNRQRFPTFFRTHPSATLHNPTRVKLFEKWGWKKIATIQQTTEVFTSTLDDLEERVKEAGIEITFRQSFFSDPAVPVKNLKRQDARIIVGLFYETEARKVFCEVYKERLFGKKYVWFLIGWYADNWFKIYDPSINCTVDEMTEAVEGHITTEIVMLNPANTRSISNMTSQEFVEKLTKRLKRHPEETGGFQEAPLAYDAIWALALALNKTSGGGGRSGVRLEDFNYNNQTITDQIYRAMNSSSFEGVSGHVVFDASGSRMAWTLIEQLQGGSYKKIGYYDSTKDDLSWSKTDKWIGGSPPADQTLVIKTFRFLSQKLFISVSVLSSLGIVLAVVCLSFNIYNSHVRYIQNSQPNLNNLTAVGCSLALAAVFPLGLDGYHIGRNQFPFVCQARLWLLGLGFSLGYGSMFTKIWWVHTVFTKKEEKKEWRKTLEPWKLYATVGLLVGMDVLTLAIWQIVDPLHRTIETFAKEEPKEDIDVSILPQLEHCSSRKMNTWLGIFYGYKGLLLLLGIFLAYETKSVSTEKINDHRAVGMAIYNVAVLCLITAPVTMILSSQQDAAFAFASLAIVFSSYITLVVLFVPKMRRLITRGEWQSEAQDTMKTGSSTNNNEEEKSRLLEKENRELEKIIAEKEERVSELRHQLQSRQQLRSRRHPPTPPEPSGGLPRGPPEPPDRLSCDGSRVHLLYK
T3 sequence (O75899 42-941 partner): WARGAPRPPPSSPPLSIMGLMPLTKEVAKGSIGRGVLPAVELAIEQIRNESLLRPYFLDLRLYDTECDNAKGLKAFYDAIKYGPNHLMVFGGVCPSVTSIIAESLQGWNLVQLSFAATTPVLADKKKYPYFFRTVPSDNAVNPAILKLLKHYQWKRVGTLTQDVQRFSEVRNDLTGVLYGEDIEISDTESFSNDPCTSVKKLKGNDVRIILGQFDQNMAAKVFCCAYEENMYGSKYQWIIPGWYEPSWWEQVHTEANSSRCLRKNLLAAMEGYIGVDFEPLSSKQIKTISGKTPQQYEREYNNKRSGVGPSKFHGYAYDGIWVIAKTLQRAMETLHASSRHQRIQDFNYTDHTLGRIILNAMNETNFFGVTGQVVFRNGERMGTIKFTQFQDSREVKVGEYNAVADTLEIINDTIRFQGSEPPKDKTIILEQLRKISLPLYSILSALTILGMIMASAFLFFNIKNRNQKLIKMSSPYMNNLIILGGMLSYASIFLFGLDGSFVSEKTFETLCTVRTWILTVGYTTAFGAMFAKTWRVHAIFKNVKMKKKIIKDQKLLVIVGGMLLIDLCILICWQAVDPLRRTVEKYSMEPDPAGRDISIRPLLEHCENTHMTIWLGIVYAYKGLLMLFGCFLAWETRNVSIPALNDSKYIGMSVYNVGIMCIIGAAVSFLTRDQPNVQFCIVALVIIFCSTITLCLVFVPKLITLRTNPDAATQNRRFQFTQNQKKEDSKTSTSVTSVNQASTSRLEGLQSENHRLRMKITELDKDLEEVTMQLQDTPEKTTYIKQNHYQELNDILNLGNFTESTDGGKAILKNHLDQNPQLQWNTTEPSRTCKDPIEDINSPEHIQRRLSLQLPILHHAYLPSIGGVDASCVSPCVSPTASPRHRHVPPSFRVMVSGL
T2 sequence (P31421 19-840, stated change not applied): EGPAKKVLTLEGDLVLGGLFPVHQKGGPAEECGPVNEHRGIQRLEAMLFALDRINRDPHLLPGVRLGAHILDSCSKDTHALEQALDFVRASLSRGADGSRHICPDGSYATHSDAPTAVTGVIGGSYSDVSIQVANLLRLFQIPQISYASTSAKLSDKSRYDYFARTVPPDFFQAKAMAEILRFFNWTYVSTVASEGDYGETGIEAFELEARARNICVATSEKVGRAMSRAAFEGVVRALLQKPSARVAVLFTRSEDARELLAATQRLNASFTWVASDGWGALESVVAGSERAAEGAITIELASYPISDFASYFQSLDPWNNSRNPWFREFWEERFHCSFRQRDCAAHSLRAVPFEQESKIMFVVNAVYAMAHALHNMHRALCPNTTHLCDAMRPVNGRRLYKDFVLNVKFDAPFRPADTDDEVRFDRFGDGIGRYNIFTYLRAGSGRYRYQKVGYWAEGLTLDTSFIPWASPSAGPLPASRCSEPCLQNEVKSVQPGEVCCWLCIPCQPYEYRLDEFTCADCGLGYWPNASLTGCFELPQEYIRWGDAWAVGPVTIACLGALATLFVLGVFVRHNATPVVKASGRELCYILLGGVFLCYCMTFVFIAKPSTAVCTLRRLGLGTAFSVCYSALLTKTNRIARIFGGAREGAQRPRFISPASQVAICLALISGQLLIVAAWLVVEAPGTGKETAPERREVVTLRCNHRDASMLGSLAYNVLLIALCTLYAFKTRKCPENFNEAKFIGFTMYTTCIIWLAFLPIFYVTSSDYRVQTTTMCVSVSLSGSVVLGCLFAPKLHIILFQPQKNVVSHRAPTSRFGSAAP
T1 sequence (P31421 19-872): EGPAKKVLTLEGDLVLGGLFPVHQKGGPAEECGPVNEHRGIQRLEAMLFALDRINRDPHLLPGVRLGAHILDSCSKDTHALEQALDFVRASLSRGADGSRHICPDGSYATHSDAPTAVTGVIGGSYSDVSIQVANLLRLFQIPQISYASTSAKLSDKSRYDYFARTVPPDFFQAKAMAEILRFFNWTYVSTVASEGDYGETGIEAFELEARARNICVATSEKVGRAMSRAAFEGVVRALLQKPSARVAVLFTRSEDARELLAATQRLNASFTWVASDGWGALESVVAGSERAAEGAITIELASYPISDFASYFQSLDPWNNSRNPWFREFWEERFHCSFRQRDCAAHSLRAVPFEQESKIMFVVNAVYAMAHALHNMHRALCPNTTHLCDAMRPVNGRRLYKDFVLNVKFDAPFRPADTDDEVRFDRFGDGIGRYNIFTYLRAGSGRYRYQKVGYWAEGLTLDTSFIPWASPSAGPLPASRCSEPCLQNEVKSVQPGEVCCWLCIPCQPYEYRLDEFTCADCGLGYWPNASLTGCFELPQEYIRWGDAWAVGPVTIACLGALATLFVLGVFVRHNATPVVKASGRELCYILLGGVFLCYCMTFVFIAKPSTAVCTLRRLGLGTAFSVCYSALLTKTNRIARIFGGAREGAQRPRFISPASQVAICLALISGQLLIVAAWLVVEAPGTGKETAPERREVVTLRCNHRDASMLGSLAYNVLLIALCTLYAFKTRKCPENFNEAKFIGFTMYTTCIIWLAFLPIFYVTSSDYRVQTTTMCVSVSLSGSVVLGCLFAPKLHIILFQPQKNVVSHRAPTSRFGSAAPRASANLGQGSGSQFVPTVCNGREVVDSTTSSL

Compound: N[C@@H](CCC(=O)O)C(=O)O [glutamate, L-glutamate]
Effect of agonist (Iagonist/I0) ([1]; HEK293T transfected with mGlu1, no THIK-1): 0.98 ± 0.17
Effect of agonist (Iagonist/I0) ([1]; HEK293T transfected with mGlu2, no THIK-1): 0.92 ± 0.06
n; Hill coefficient (mGlu2): 1.19 ± 0.65

Compound: Pertussis toxin [PTX]
effect of mGlu2-YFP on ΔN-THIK-2 channel after inhibitor treatment [2]: inhibited
effect of GABA on the THIK-1 channel after inhibitor treatment (GABABR): not observed
Basal current (I0) density of THIK-1 channel (THIK-1 channel [3]; THIK-1 + GABABR, + PTX (300 ng/mL)): 170.6 ± 58.2 (7)^n.s. pA/pF
Basal current (I0) density of THIK-1 channel (THIK-1 channel [3]; THIK-1 + M2R, + PTX (300 ng/mL)): 168.6 ± 141.2 (6)^n.s pA/pF
Basal current (I0) density of THIK-1 channel (THIK-1 channel [3]; THIK-1 + mGlu2, + PTX (300 ng/mL)): 281.87 ± 148.3 (5)^n.s. pA/pF

increase in the amplitude of the THIK-1 channel current (I10th/I0) versus vehicle (DMSO) (THIK-1 channel [4]): not significantly different
current amplitude of ΔN-THIK-2 channel (ΔN-THIK-2 channel): did not increase the current amplitude
Compound: CCCCCCCC/C=C\CCCCCCCC(=O)OC[C@H](CO)OC(C)=O [OAG, 1-oleoyle-2-acetyl-sn-glycerol]
